{"source": "ChEMBL document CHEMBL1201862", "about": "“PubChem BioAssay data set” (2004)", "test_in_all_cases": "NCI anticancer screen, dose series, 48 h", "key": {"NCI-H522": {"tested_on": "NCI-H522"}, "MOLT-4": {"tested_on": "MOLT-4"}, "HT-29": {"tested_on": "HT-29"}, "SK-MEL-2": {"tested_on": "SK-MEL-2"}, "ACHN": {"tested_on": "ACHN"}, "OVCAR-4": {"tested_on": "OVCAR-4"}, "M14": {"tested_on": "M14"}, "CCRF-CEM": {"tested_on": "CCRF-CEM"}, "KM12": {"tested_on": "KM12"}, "K562": {"tested_on": "K562"}, "RXF 393": {"tested_on": "RXF 393"}, "KM-20L2": {"tested_on": "KM-20L2"}, "NCI-H226": {"tested_on": "NCI-H226"}, "HCT-15": {"tested_on": "HCT-15"}, "OVCAR-8": {"tested_on": "OVCAR-8"}, "DLD-1": {"tested_on": "DLD-1"}, "SN12C": {"tested_on": "SN12C"}, "NCI-H460": {"tested_on": "NCI-H460"}, "DMS-273": {"tested_on": "DMS-273"}, "TK-10": {"tested_on": "TK-10"}, "786-0": {"tested_on": "786-0"}, "SK-OV-3": {"tested_on": "SK-OV-3"}, "OVCAR-3": {"tested_on": "OVCAR-3"}, "SR": {"tested_on": "SR"}, "HCT-116": {"tested_on": "HCT-116"}, "HOP-18": {"tested_on": "HOP-18"}, "CAKI-1": {"tested_on": "CAKI-1"}, "LOX IMVI": {"tested_on": "LOX IMVI"}, "M19-MEL": {"tested_on": "M19-MEL"}, "HL-60": {"tested_on": "HL-60"}, "UO-31": {"tested_on": "UO-31"}, "U-251": {"tested_on": "U-251"}, "RPMI-8226": {"tested_on": "RPMI-8226"}, "SNB-19": {"tested_on": "SNB-19"}, "SF-539": {"tested_on": "SF-539"}, "HOP-92": {"tested_on": "HOP-92"}, "SF-268": {"tested_on": "SF-268"}, "A549": {"tested_on": "A549"}, "SF-295": {"tested_on": "SF-295"}, "NCI-H23": {"tested_on": "NCI-H23"}, "OVCAR-5": {"tested_on": "OVCAR-5"}, "XF498": {"tested_on": "XF498"}, "Malme-3M": {"tested_on": "Malme-3M"}, "SNB-75": {"tested_on": "SNB-75"}, "UACC-62": {"tested_on": "UACC-62"}, "IGROV-1": {"tested_on": "IGROV-1"}, "SK-MEL-5": {"tested_on": "SK-MEL-5"}, "COLO 205": {"tested_on": "COLO 205"}, "LXFL 529": {"tested_on": "LXFL 529"}, "A498": {"tested_on": "A498"}, "RXF 631": {"tested_on": "RXF 631"}, "SK-MEL-28": {"tested_on": "SK-MEL-28"}, "HOP-62": {"tested_on": "HOP-62"}, "EKVX": {"tested_on": "EKVX"}, "UACC-257": {"tested_on": "UACC-257"}, "HCC 2998": {"tested_on": "HCC 2998"}}, "note": "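Following 48 hours of exposure in 96-well plates, responses at five concentrations were used to interpolate endpoints linearly. GI50 is the concentration that inhibits growth by half.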 Calls of active or inactive are those of the source. Cut-off read from the data, not from the text of the source: active = GI50 up to about 1.1 µM and inactive = higher.", "data": [{"compound": "N#Cc1ccc(Sc2ccccc2)cc1C#N", "values": [{"measurement": "GI50", "setting": "NCI-H522", "value": "31.7 µM (inactive)"}, {"measurement": "GI50", "setting": "MOLT-4", "value": "> 100 µM (inactive)"}, {"measurement": "GI50", "setting": "HT-29", "value": "> 100 µM (inactive)"}, {"measurement": "GI50", "setting": "SK-MEL-2", "value": "> 100 µM (inactive)"}, {"measurement": "GI50", "setting": "ACHN", "value": "> 100 µM (inactive)"}, {"measurement": "GI50", "setting": "OVCAR-4", "value": "> 100 µM (inactive)"}, {"measurement": "GI50", "setting": "M14", "value": "> 100 µM (inactive)"}, {"measurement": "GI50", "setting": "CCRF-CEM", "value": "18.1 µM (inactive)"}, {"measurement": "GI50", "setting": "KM12", "value": "> 100 µM (inactive)"}, {"measurement": "GI50", "setting": "K562", "value": "45.8 µM (inactive)"}, {"measurement": "GI50", "setting": "RXF 393", "value": "33 µM (inactive)"}, {"measurement": "GI50", "setting": "KM-20L2", "value": "75.3 µM (inactive)"}, {"measurement": "GI50", "setting": "NCI-H226", "value": "> 100 µM (inactive)"}, {"measurement": "GI50", "setting": "HCT-15", "value": 16, "unit": "µM"}, {"measurement": "GI50", "setting": "OVCAR-8", "value": "31 µM (inactive)"}, {"measurement": "GI50", "setting": "DLD-1", "value": "34 µM (inactive)"}, {"measurement": "GI50", "setting": "SN12C", "value": "60.3 µM (inactive)"}, {"measurement": "GI50", "setting": "NCI-H460", "value": "22.2 µM (inactive)"}, {"measurement": "GI50", "setting": "DMS-273", "value": "19.1 µM (inactive)"}, {"measurement": "GI50", "setting": "TK-10", "value": "80.5 µM (inactive)"}, {"measurement": "GI50", "setting": "786-0", "value": "28.1 µM (inactive)"}, {"measurement": "GI50", "setting": "SK-OV-3", "value": "54 µM (inactive)"}, {"measurement": "GI50", "setting": "OVCAR-3", "value": "> 100 µM (inactive)"}, {"measurement": "GI50", "setting": "SR", "value": "18.7 µM (inactive)"}, {"measurement": "GI50", "setting": "HCT-116", "value": "20.7 µM (inactive)"}, {"measurement": "GI50", "setting": "HOP-18", "value": "50.6 µM (inactive)"}, {"measurement": "GI50", "setting": "CAKI-1", "value": "> 100 µM (inactive)"}, {"measurement": "GI50", "setting": "LOX IMVI", "value": "19.9 µM (inactive)"}, {"measurement": "GI50", "setting": "M19-MEL", "value": "> 100 µM (inactive)"}, {"measurement": "GI50", "setting": "HL-60", "value": "> 100 µM (inactive)"}, {"measurement": "GI50", "setting": "UO-31", "value": "> 100 µM (inactive)"}, {"measurement": "GI50", "setting": "U-251", "value": "36.1 µM (inactive)"}, {"measurement": "GI50", "setting": "RPMI-8226", "value": "28.1 µM (inactive)"}, {"measurement": "GI50", "setting": "SNB-19", "value": "39.3 µM (inactive)"}, {"measurement": "GI50", "setting": "SF-539", "value": "19.7 µM (inactive)"}, {"measurement": "GI50", "setting": "HOP-92", "value": "30.1 µM (inactive)"}, {"measurement": "GI50", "setting": "SF-268", "value": "22.6 µM (inactive)"}, {"measurement": "GI50", "setting": "A549", "value": "> 100 µM (inactive)"}, {"measurement": "GI50", "setting": "SF-295", "value": "39.9 µM (inactive)"}, {"measurement": "GI50", "setting": "NCI-H23", "value": "50.5 µM (inactive)"}, {"measurement": "GI50", "setting": "OVCAR-5", "value": "> 100 µM (inactive)"}, {"measurement": "GI50", "setting": "XF498", "value": "23.1 µM (inactive)"}, {"measurement": "GI50", "setting": "Malme-3M", "value": "> 100 µM (inactive)"}, {"measurement": "GI50", "setting": "SNB-75", "value": "21.7 µM (inactive)"}, {"measurement": "GI50", "setting": "UACC-62", "value": "> 100 µM (inactive)"}, {"measurement": "GI50", "setting": "IGROV-1", "value": "> 100 µM (inactive)"}, {"measurement": "GI50", "setting": "SK-MEL-5", "value": "> 100 µM (inactive)"}, {"measurement": "GI50", "setting": "COLO 205", "value": "33.2 µM (inactive)"}, {"measurement": "GI50", "setting": "LXFL 529", "value": "59.7 µM (inactive)"}, {"measurement": "GI50", "setting": "A498", "value": "> 100 µM (inactive)"}, {"measurement": "GI50", "setting": "RXF 631", "value": "30.9 µM (inactive)"}, {"measurement": "GI50", "setting": "SK-MEL-28", "value": "> 100 µM (inactive)"}, {"measurement": "GI50", "setting": "HOP-62", "value": "36.9 µM (inactive)"}, {"measurement": "GI50", "setting": "EKVX", "value": "> 100 µM (inactive)"}, {"measurement": "GI50", "setting": "UACC-257", "value": "> 100 µM (inactive)"}, {"measurement": "GI50", "setting": "HCC 2998", "value": "> 100 µM (inactive)"}]}]}
